Key:
[1] = target: Macrophage colony-stimulating factor 1 receptor (Homo sapiens) (UniProt P07333); test: Inhibition of FMS using fluorescent labelled substrate at 5 uM by caliper method
[2] = target: Serine/threonine-protein kinase Sgk2 (Homo sapiens) (UniProt Q9HBY8); test: Inhibition of SGK2 using fluorescent labelled substrate at 5 uM by caliper method
[3] = Inhibition of PKA using fluorescent labelled substrate at 5 uM by caliper method
[4] = target: Insulin receptor (Homo sapiens) (UniProt P06213); test: Inhibition of INSR using fluorescent labelled substrate at 5 uM by caliper method
[5] = target: T1, RAC-alpha serine/threonine-protein kinase (Homo sapiens, UniProt P31749); conditions: Sf9
[6] = target: Protein kinase C gamma type (Homo sapiens) (UniProt P05129); test: Inhibition of PKCgamma using fluorescent labelled substrate at 5 uM by caliper method
[7] = target: Serine/threonine-protein kinase Sgk3 (Homo sapiens) (UniProt Q96BR1); test: Inhibition of SGK3 using fluorescent labelled substrate at 5 uM by caliper method
[8] = target: MAP kinase-activated protein kinase 2 (Homo sapiens) (UniProt P49137); test: Inhibition of MAPKAPK2 using fluorescent labelled substrate at 5 uM by caliper method
[9] = target: T2, RAC-beta serine/threonine-protein kinase (Homo sapiens, UniProt P31751); test: Inhibition of Akt2 (1 to 481) expressed in Sf9 cells using biotin-GRPRTSSFAEG as substrate after 20 mins by Alpha-screen assay
[10] = target: Ribosomal protein S6 kinase alpha-6 (Homo sapiens) (UniProt Q9UK32); test: Inhibition of RSK4 using fluorescent labelled substrate at 5 uM by caliper method
[11] = target: Rho-associated protein kinase 1 (Homo sapiens) (UniProt Q13464); test: Inhibition of ROCK1 using fluorescent labelled substrate at 5 uM by caliper method
Cytochrome P450 3A4 = Cytochrome P450 3A4 (Homo sapiens, UniProt P08684); test: Inhibition of CYP3A4 in human liver microsomes using midazolam as substrate after 10 mins; assay type: ADME, Microsome
[12] = target: cAMP-dependent protein kinase catalytic subunit PRKX (Homo sapiens) (UniProt P51817); test: Inhibition of PRKX using fluorescent labelled substrate at 5 uM by caliper method
AN3-CA = test: Antiproliferative activity against human AN3CA cells after 72 hrs by MTS assay; assay type: functional, cell-based
[13] = target: Ribosomal protein S6 kinase alpha-1 (Homo sapiens) (UniProt Q15418); test: Inhibition of RSK1 using fluorescent labelled substrate at 5 uM by caliper method
Cytochrome P450 2C8 = target: T3, Cytochrome P450 2C8 (Homo sapiens, UniProt P10632); test: Inhibition of CYP2C8 in human liver microsomes using paclitaxel as substrate after 10 mins; assay type: ADME, Microsome
T3 sequence (P10632 whole entry): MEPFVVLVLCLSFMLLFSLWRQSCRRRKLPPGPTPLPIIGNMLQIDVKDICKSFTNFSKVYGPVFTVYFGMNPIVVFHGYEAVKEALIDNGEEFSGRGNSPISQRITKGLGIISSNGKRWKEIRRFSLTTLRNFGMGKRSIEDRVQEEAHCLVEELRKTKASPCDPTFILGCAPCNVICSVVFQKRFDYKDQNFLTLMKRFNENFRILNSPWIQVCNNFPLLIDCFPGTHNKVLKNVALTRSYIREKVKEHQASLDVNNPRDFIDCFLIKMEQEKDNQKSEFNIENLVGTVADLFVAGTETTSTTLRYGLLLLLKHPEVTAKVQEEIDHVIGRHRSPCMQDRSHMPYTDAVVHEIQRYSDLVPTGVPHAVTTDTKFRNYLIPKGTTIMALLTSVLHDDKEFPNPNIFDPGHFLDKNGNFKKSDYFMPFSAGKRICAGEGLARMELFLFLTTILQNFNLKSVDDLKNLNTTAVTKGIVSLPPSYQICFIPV

A2780 = test: Antiproliferative activity against human A2780 cells after 72 hrs by MTS assay; assay type: functional, cell-based; conditions: A2780, 72 h
[14] = target: T2, RAC-beta serine/threonine-protein kinase; test: Binding affinity to Akt2 (1 to 481) expressed in Sf9 cells assessed as change in melting temperature at 15 uM
[15] = Half life in female CD1 mouse liver microsomes at 1 uM by LC/MS/MS; assay type: ADME, Microsome
[16] = target: Cyclin-dependent kinase 1/cyclin B1 (Homo sapiens) (UniProt P06493+P14635); test: Inhibition of CDK1/cyclinB using fluorescent labelled substrate at 5 uM by caliper method; assay type: protein-complex assay
[17] = target: T1, RAC-alpha serine/threonine-protein kinase; test: Inhibition of Akt1 in human A2780 cells assessed as phosphorylation of Akt at S473 after 2 hrs by Western Blot analysis; assay type: cell-based
[18] = target: T1, RAC-alpha serine/threonine-protein kinase; test: Inhibition of Akt 1 in human AN3CA cells assessed as phosphorylation of Akt at T308 after 2 hrs by Western Blot analysis; assay type: cell-based, AN3-CA
[19] = target: Cyclin-dependent kinase 5/CDK5 activator 1 (Homo sapiens) (UniProt Q00535+Q15078); test: Inhibition of CDK5/p35 using fluorescent labelled substrate at 5 uM by caliper method; assay type: protein-complex assay
[20] = target: T1, RAC-alpha serine/threonine-protein kinase; test: Inhibition of Akt 1 in human A2780 cells assessed as phosphorylation of Akt at T308 after 2 hrs by Western Blot analysis; assay type: cell-based
[21] = target: T1, RAC-alpha serine/threonine-protein kinase; test: Inhibition of Akt1 in human AN3CA cells assessed as phosphorylation of Akt at S473 after 2 hrs by Western Blot analysis; assay type: cell-based, AN3-CA
[22] = target: RAC-gamma serine/threonine-protein kinase (Homo sapiens, UniProt Q9Y243); test: Inhibition of Akt3 (1 to 479) expressed in Sf9 cells using biotin-GRPRTSSFAEG as substrate after 20 mins by Alpha-screen assay
Cytochrome P450 1A2 = target: T4, Cytochrome P450 1A2 (Homo sapiens, UniProt P05177); test: Inhibition of CYP1A2 in human liver microsomes using phenacetin as substrate after 10 mins; assay type: ADME, Microsome
T4 sequence (P05177 whole entry): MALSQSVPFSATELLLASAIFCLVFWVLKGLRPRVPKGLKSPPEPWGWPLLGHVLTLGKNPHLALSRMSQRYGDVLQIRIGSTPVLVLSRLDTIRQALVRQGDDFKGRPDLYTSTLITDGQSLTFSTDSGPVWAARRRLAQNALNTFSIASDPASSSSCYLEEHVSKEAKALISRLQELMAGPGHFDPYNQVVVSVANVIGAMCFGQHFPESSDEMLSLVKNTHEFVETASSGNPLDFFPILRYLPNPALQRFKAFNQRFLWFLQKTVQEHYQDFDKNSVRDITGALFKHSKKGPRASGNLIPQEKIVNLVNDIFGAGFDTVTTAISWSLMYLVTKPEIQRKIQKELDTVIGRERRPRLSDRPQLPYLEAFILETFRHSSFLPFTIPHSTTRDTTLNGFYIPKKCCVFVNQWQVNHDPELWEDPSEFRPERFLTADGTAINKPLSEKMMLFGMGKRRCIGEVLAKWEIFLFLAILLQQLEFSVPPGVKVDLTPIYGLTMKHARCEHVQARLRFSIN

[23] = target: Protein kinase C theta type (Homo sapiens) (UniProt Q04759); test: Inhibition of PKCtheta using fluorescent labelled substrate at 5 uM by caliper method

T1 sequence (P31749 whole entry): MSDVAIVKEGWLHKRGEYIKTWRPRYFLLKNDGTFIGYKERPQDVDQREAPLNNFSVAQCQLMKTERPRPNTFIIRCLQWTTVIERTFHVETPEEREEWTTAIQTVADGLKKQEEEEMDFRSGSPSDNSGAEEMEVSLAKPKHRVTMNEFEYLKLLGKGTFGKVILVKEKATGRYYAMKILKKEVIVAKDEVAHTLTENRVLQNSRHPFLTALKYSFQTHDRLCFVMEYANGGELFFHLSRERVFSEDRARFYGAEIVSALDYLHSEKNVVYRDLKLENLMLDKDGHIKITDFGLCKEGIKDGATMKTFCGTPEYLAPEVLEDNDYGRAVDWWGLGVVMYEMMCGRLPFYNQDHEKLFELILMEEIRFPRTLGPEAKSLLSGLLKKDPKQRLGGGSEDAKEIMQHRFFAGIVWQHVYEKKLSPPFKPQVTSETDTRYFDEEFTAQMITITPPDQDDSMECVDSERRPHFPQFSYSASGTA
T2 sequence (P31751 whole entry): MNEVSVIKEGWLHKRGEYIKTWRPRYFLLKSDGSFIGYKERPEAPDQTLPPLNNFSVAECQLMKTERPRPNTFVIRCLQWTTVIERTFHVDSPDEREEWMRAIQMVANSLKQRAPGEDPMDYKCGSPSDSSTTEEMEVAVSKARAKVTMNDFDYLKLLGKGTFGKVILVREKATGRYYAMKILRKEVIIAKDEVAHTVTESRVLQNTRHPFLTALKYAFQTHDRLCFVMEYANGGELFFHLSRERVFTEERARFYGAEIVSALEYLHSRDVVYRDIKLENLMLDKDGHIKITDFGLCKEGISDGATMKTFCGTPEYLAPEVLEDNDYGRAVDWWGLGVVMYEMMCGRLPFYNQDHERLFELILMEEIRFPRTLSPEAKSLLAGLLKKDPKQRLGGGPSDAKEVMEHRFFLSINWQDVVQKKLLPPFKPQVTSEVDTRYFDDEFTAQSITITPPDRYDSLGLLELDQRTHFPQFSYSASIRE
Sequence of RAC-gamma serine/threonine-protein kinase (Q9Y243 whole entry): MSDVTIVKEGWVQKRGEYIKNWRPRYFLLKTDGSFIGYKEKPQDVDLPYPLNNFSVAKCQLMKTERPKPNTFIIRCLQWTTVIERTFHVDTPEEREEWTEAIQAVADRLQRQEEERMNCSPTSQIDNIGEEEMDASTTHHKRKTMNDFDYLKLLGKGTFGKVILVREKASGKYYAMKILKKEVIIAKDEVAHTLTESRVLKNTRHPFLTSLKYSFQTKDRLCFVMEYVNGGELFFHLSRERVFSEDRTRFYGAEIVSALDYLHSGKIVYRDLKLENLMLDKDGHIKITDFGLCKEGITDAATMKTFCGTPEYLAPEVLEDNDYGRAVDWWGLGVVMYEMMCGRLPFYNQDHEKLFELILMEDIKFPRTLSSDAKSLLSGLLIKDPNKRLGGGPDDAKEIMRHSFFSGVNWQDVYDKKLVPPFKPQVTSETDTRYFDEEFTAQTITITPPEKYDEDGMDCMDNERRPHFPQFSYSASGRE
Sequence of Ribosomal protein S6 kinase alpha-1 (Homo sapiens) (Q15418 whole entry): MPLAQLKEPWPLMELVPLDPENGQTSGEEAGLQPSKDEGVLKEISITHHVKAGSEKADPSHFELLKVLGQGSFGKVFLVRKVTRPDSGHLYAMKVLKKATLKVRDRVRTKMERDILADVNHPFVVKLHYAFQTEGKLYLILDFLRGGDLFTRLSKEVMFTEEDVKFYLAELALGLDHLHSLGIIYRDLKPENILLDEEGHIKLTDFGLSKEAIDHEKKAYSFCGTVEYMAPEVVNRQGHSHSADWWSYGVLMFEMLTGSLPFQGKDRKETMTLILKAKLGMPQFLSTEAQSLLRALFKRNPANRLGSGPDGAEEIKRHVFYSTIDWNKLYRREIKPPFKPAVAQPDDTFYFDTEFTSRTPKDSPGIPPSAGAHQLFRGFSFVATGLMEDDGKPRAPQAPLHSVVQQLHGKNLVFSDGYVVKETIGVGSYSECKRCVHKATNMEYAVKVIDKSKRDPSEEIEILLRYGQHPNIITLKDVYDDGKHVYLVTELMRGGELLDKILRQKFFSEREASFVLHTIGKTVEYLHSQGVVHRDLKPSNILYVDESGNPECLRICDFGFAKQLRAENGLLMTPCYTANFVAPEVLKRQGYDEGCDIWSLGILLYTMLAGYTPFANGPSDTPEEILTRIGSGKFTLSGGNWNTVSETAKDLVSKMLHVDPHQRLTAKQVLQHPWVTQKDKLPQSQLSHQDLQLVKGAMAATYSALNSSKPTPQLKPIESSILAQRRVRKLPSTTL
Sequence of Ribosomal protein S6 kinase alpha-6 (Homo sapiens) (Q9UK32 whole entry, looked up): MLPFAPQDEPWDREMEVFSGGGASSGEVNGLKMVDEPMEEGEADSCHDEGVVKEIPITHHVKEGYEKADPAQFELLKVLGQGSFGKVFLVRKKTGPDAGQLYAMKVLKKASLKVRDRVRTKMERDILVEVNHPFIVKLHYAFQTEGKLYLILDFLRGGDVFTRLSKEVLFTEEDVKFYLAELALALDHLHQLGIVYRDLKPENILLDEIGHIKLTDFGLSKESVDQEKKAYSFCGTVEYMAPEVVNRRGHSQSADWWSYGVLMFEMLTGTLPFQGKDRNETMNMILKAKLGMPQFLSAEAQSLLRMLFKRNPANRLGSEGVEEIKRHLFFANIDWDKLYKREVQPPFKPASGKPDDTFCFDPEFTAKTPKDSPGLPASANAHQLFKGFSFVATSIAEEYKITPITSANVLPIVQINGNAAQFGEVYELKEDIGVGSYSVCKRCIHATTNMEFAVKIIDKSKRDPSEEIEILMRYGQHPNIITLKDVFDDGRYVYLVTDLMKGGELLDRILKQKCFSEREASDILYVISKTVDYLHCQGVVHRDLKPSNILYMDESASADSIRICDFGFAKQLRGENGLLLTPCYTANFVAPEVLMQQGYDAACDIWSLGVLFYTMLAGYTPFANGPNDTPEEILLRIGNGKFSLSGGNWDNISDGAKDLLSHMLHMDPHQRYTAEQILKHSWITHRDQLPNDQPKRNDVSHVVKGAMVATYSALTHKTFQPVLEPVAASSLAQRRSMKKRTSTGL
Sequence of cAMP-dependent protein kinase catalytic subunit PRKX (Homo sapiens) (P51817 whole entry): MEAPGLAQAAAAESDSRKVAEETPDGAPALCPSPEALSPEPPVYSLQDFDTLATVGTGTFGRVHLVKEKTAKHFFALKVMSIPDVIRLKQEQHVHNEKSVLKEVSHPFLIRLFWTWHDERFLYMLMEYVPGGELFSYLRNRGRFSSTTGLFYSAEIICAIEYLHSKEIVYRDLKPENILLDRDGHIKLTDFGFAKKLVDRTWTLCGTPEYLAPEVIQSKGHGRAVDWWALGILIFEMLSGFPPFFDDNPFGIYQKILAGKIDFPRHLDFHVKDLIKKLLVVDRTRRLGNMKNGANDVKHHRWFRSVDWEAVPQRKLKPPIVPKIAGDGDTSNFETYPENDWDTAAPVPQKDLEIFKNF
Sequence of Serine/threonine-protein kinase Sgk3 (Homo sapiens) (Q96BR1 whole entry): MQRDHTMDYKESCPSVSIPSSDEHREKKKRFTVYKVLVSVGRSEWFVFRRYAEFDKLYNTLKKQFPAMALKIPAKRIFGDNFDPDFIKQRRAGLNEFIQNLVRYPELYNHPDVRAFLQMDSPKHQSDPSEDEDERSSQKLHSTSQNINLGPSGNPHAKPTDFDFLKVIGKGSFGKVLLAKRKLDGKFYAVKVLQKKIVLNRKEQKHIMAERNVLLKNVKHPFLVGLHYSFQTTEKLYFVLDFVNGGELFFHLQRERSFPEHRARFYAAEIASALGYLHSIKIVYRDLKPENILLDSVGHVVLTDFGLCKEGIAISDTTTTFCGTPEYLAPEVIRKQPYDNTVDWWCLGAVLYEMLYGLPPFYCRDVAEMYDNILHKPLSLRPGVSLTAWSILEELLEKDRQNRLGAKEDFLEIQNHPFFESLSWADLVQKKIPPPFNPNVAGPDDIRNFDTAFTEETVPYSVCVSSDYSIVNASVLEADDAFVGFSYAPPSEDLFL
Sequence of Cyclin-dependent kinase 5/CDK5 activator 1 (Homo sapiens) (Q00535 whole entry): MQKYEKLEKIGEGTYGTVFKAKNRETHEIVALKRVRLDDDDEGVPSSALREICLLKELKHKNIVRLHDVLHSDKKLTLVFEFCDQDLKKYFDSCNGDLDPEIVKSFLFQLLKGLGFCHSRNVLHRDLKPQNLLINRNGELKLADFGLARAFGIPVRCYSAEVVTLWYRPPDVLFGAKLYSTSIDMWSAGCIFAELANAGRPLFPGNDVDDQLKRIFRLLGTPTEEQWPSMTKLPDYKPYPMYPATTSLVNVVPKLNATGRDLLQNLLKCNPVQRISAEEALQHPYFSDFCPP
Sequence of Cyclin-dependent kinase 5/CDK5 activator 1 (Homo sapiens) (Q15078 99-307 partner limits assumed): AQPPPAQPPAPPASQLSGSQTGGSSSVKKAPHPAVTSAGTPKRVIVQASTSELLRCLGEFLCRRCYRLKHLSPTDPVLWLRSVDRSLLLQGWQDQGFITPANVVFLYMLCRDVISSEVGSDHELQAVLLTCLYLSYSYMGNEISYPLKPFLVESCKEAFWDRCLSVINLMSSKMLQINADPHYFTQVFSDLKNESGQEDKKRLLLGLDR

| Compound | inhibition [1] | inhibition [2] | inhibition [3] | inhibition [4] | ΔTm [5] | inhibition [6] | inhibition [7] | inhibition [8] | IC50 [9] | inhibition [10] | inhibition [11] | IC50 (Cytochrome P450 3A4) | inhibition [12] | IC50 (AN3-CA) | inhibition [13] | IC50 (Cytochrome P450 2C8) | IC50 (A2780) | ΔTm [14] | half-life at 1 µM [15] | inhibition [16] | further results |
| --- | --- | --- | --- | --- | --- | --- | --- | --- | --- | --- | --- | --- | --- | --- | --- | --- | --- | --- | --- | --- | --- |
| Nc1ncccc1-c1nc2cccnc2n1-c1ccc(CNC(=O)c2ccccc2)cc1 | > 25% | > 25% | > 25% | > 25% | 6.4 °C | > 25% | > 25% | > 25% | 660 nM | > 25% | > 25% | > 10 µM | > 25% | > 100 µM | > 25% | > 10 µM | > 100 µM | 1.3 °C | > 60 min | > 25% | IC50 [17]: 410 nM; IC50 [18]: > 10 µM; inhibition [19]: > 25%; IC50 [20]: 370 nM; IC50 [21]: 5.6 µM; IC50 [22]: 24 µM; IC50 (Cytochrome P450 1A2): > 10 µM; inhibition [23]: > 25% |
| Nc1ncccc1-c1nc2cccnc2n1-c1ccc(CC(=O)Nc2ccccc2)cc1 | > 25% | > 25% | > 25% | > 25% | 6.7 °C | > 25% | > 25% | > 25% | 700 nM | > 25% | > 25% | > 10 µM | > 25% | 70 µM | > 25% | > 10 µM | 57 µM | 1.2 °C | > 60 min | > 25% | IC50 [17]: 210 nM; IC50 [18]: > 10 µM; inhibition [19]: > 25%; IC50 [20]: 1300 nM; IC50 [21]: 2.5 µM; IC50 [22]: 22 µM; IC50 (Cytochrome P450 1A2): > 10 µM; inhibition [23]: > 25% |
